The record followed here is patent US10556860B2, “hTERT modulators and methods of use” (Arizona Board of Regents on Behalf of the University of …, priority 2015, dated 2020).

The subject of assay [1] is G124/125A mutant hTERT 5-12 fragment. As to the kind of experiment: Single-molecule laser tweezer unfolding, G124/125A mutant. Type of assay: biochemical, human. Conditions: 2 μM, 10 mM Tris, 100 mM KCl, pH 7.4; single- and double-stranded template. Here is the method:
Single-molecule tweezer. Preparation of the DNA construct. The DNA construct that contains the single-stranded hTERT 5-12 fragment was prepared by sandwiching the target sequence between two double-stranded DNA handles. Five deoxythymidines were added at both ends of the hTERT 5-12 fragment to reduce the interference from the double-stranded DNA handles on the target sequence. Briefly, the 2690-base-pair double-stranded DNA handle was prepared through restriction enzyme digestion of the pEGFP vector (Clontech, Mountain View, Calif.). In the first step, the vector was digested by Sad and Eagl restriction enzymes, followed by purification with agarose gel. The EagI end of the DNA fragment was labeled with digoxigenin using terminal deoxynucleotidyl transferase. […]
Single-molecule force-ramp assay. […] After this, the two beads were moved apart to increase the tension on the DNA tether with a loading rate of 5.5 pN/s, and the force-extension (F-X) curves were recorded using the LabVIEW program (National Instruments Corp., Austin, Tex.).
The F-X curves were filtered by Savitzky-Golay function with a 10 ms time constant in the MATLAB program (The Math Works, Natick, Mass.). […] The change-in-contour length (ΔL) was calculated based on the Δx through the worm-like chain model (equation 1). […]

In a further assay the test system is hTERT protein. As to the kind of experiment: Western blot of hTERT protein in MCF7 cells. Type of assay: cell-based, human. Here is the method:
Western blot analysis. GTC365- or DMSO-treated MCF7 cells were lysed by RIPA buffer and the supernatant of lysate was obtained by centrifugation at 14,000 rpm for 15 min. The concentration of the whole cellular protein was determined by Bradford assay. The same amount of proteins (120 μg) was separated on 8% SDS-PAGE and transferred to PVDF membrane in 20% MeOH/1× Tris-glycine. The membrane was incubated in a blocking buffer containing 5% BSA/5% non-fat milk with TBS-T (0.1% Tween 20) for 90 min at room temperature prior to overnight incubation with hTERT antibody against rabbit (1:200, Santa Cruz #H231, pAb) in 5% BSA/TBS-T buffer at 4° C. […]
Immunoblot analysis. […] The concentration of the whole cellular protein was determined byBradford assay. […]
BCL2 is a downstream molecule to hTERT such that BCL2 expression is activated by hTERT to repress apoptosis. To further define the effect of GTC365 on the transcription of hTERT, the relative mRNA levels of MYC and BCL2 were determined by quantitative PCR analysis in MCF7 cells after treatment with GTC365 for 72 h. […] A series of GTC260 analogs were synthesized and their effect on hTERT gene expression in MCF7A and U87 cells determined (FIG. 7). […]
Background: Immunoblotting shows a protein as a band on a membrane.

Structures are written as SMILES.

Turning to `N=C(N)NCCCS(=O)(=O)Nc1ccc(Nc2c3ccccc3nc3cc([N+](=O)[O-])ccc23)cc1` [GTC365], in assay [1], the “full-length G-rich species (>36 nt/bp) population” value is recorded as “recovered”. For the same molecule, in the assay with hTERT protein, the hTERT protein level result is on record as “downregulated”.
